Measurements: patent US9375006B2, “5- halogenopyrazole benzofuranyl carboxamides” (BAYER CROPSCIENCE AG, priority 2012, dated 2016)

What was measured:
Septoria tritici = assay: In vivo preventive test on Septoria tritici (leaf spot on wheat); settings: 500 ppm, wheat plants, preventive spray, grading 24 days after contamination
Description: Wheat plants (“Scipion” variety), sown in starter cups on a 50/50 peat soil-pozzolana substrate and grown at 22° C., are treated at the 1-leaf stage (10 cm height) by spraying with the active ingredient prepared as described above. Plants, used as controls, are treated with the mixture of acetone/tween/DMSO/water not containing the active material. After 24 hours, the plants are contaminated by spraying the leaves with an aqueous suspension of cryopreserved Septoria tritici spores (500 000 spores per ml). The contaminated wheat plants are incubated for 72 hours at 18° C. and at 100% relative humidity, and then for 21 days at 90% relative humidity. Grading (% of efficacy) is carried out 24 days after the contamination, in comparison with the control plants.

Botrytis cinerea = assay: In vivo preventive test on Botrytis cinerea (grey mould), gherkin plants; settings: preventive spray, grading 4 to 5 days after contamination
Description: (§1) The active ingredients tested are prepared by homogenization in a mixture of acetone/tween/DMSO and then diluted with water to obtain the desired active material concentration.
(§2) Gherkin plants (“Vert petit de Paris” variety), sown in starter cups on a 50/50 peat soil-pozzolana substrate and grown at 24° C., are treated at the Z11 cotyledon stage by spraying with the active ingredient prepared as described above. Plants, used as controls, are treated with the mixture of acetone/tween/DMSO/water not containing the active material.
After 24 hours, the plants are contaminated by spraying the cotyledons with an aqueous suspension of cryopreserved Botrytis cinerea spores (50 000 spores per ml). The spores are suspended in a nutrient solution composed of 10 g/L of PDB, 50 g/L of D-Fructose, 2 g/L of NH4NO3 and 1 g/L of KH2PO4. The contaminated gherkin plants are incubated at 17° C. and at 90% relative humidity.
Grading (% of efficacy) is carried out 4 to 5 days after the contamination, in comparison with the control plants.

Sphaerotheca fuliginea = assay: In vivo preventive test on Sphaerotheca fuliginea (powdery mildew on cucurbits); settings: gherkin plants, preventive spray, grading 12 days after contamination
Description: as §1, §2
After 24 hours, the plants are contaminated by spraying the cotyledons with an aqueous suspension of Sphaerotheca fuliginea spores (100 000 spores per ml). The spores are collected from infected plants. The contaminated gherkin plants are incubated at about 20° C. and at 70-80% relative humidity.
(§3) Grading (% of efficacy) is carried out 12 days after the contamination, in comparison with the control plants.

Pyrenophora teres = assay: In vivo preventive test on Pyrenophora teres (net blotch on barley); settings: barley plants, preventive spray, grading 14 days after contamination
Description: Barley plants (“Plaisant” variety), sown in starter cups on a 50/50 peat soil-pozzolana substrate and grown at 22° C., are treated at the 1-leaf stage (10 cm height) by spraying with the active ingredient prepared as described above. Plants, used as controls, are treated with the mixture of acetone/tween/DMSO/water not containing the active material. After 24 hours, the plants are contaminated by spraying the leaves with an aqueous suspension of Pyrenophora teres spores (12 000 spores per ml). The spores are collected from a 12-day-old culture. The contaminated barley plants are incubated for 48 hours at 20° C. and at 100% relative humidity, and then for 12 days at 20° C. at 70-80% relative humidity. Grading (% of efficacy) is carried out 14 days after the contamination, in comparison with the control plants.

[1] = logP by HPLC on reversed phase columns (EEC directive 79/831 Annex V.A8); type: physicochemical; settings: method [a]: LC-MS at pH 2.7, 0.1% formic acid in water / acetonitrile
Description: Measurement of log P values was performed according EEC directive 79/831 Annex V.A8 by HPLC (High Performance Liquid Chromatography) on reversed phase columns with the following methods: ^[a] Measurement of LC-MS was done at pH 2.7 with 0.1% formic acid in water and with acetonitrile (contains 0.1% formic acid) as eluent with a linear gradient from 10% acetonitrile to 95% acetonitrile. ^[b] Measurement with LC-MS was done at pH 7.8 with 0.001 molar ammonium hydrogen carbonate solution in water as eluent with a linear gradient from 10% acetonitrile to 95% acetonitrile.

Uromyces appendiculatus = assay: In vivo preventive test on Uromyces appendiculatus (bean rust); settings: bean plants, preventive spray, grading 11 days after contamination
Description: (§4) The active ingredients tested are prepared by homogenization in a mixture of acetone/tween/DMSO, and then diluted with water to obtain the desired active material concentration.
Bean plants (“Saxa” variety), sown in starter cups on a 50/50 peat soil-pozzolana substrate and grown at 24° C., are treated at the 2-leaf stage (9 cm height) by spraying with the active ingredient prepared as described above. Plants, used as controls, are treated with the mixture of acetone/tween/DMSO/water not containing the active material.
(§5) After 24 hours, the plants are contaminated by spraying the leaves with an aqueous suspension of Uromyces appendiculatus spores (150 000 spores per ml). The spores are collected from infected plants and are suspended in water containing 2.5 ml/l of Tween 80 at 10%. The contaminated bean plants are incubated for 24 hours at 20° C. and at 100% relative humidity, and then for 10 days at 20° C. and at 70-80% relative humidity.
Grading (% of efficacy) is carried out 11 days after the contamination, in comparison with the control plants.

Puccinia recondita = assay: In vivo preventive test on Puccinia recondita (brown rust on wheat); settings: wheat plants, preventive spray, grading 12 days after contamination
Description: as §4
Wheat plants (“Scipion” variety), sown in starter cups on a 50/50 peat soil-pozzolana substrate and grown at 22° C., are treated at the 1-leaf stage (10 cm height) by spraying with the active ingredient prepared as described above. Plants, used as controls, are treated with the mixture of acetone/tween/DMSO/water not containing the active material.
as §5, with “of Puccinia […]” for “of Uromyces appendiculatus”, “spores (100” for “spores (150”, “from an” for “from”, “infected plant” for “infected plants”, “contaminated wheat” for “contaminated bean”
as §3

Phakopsora pachyrhizi = assay: In vivo Phakopsora test (soybeans) / preventive; settings: 10 ppm of active ingredient, evaluated 7 days after inoculation
[2] = tested on: Fusarium nivale (var. majus); assay: Fusarium nivale (var. majus) test (wheat) / preventive; type: in vivo; settings: 500 ppm of active ingredient, evaluated 5 days after inoculation
From the text: Solvent: 49 parts by weight of N,N-dimethylacetamide Emulsifier: 1 part by weight of alkylaryl polyglycol ether […] To test for preventive activity, young plants are sprayed with the preparation of active compound or active compound combination at the stated rate of application. After the spray coating has been dried, the plants are slightly injured by using a sandblast and afterwards they are sprayed with a conidia suspension of Fusarium nivale (var. majus). The plants are placed in the greenhouse under a translucent incubation cabinet at a temperature of approximately 10° C. and a relative atmospheric humidity of approximately 100%.

Alternaria brassicae = assay: In vivo preventive test on Alternaria brassicae (leaf spot on radish); settings: radish plants, preventive spray, grading 6 days after contamination
Description: Radish plants (“Pernod Clair” variety), sown in starter cups on a 50/50 peat soil-pozzolana substrate and grown at 17° C., are treated at the cotyledon stage by spraying with the active ingredient prepared as described above. Plants, used as controls, are treated with the mixture of acetone/tween/DMSO/water not containing the active material. After 24 hours, the plants are contaminated by spraying the cotyledons with an aqueous suspension of Alternaria brassicae spores (50 000 spores per ml). The spores are collected from a 15-day-old culture. The contaminated radish plants are incubated at 20° C. and at 100% relative humidity. Grading (% of efficacy) is carried out 6 days after the contamination, in comparison with the control plants.

CCC1(CC)OC(C)c2c(NC(=O)c3cn(C)nc3C(F)F)cccc21 (stereo not shown) [Example 6]
Eff. % (Septoria tritici): 100% | Eff. % (Botrytis cinerea; 500 ppm): 100% | Eff. % (Sphaerotheca fuliginea; 500 ppm): 100% | Eff. % (Pyrenophora teres; 500 ppm): 92% | logP [1]: 2.9[a] | Eff. % (Uromyces appendiculatus; 500 ppm): 100%

CCC1(CC)OC(C)c2c(NC(=O)c3c(C(F)F)nn(C)c3F)cccc21 (stereo not shown) [Example 13]
Eff. % (Septoria tritici): 79% | Eff. % (Botrytis cinerea; 500 ppm): 100% | Eff. % (Puccinia recondita; 500 ppm): 100% | Eff. % (Sphaerotheca fuliginea; 500 ppm): 100% | Eff. % (Pyrenophora teres; 500 ppm): 83% | logP [1]: 3.27[a] | Eff. % (Uromyces appendiculatus; 500 ppm): 100%

Cn1nc(C(F)F)c(C(=O)Nc2cccc3c2C(C)(C)OC3(C)C)c1Cl [Example 2]
Eff. % (Phakopsora pachyrhizi): 96% | Eff. % [2]: 86%

CCC1(CC)OC(C)c2c(NC(=O)c3c(C(F)F)nn(C)c3Cl)cccc21 (stereo not shown) [Example 9]
Eff. % (Septoria tritici): 93% | Eff. % (Puccinia recondita; 500 ppm): 100% | Eff. % (Sphaerotheca fuliginea; 500 ppm): 94% | logP [1]: 3.48[a] | Eff. % (Uromyces appendiculatus; 500 ppm): 100%

CCC1(CC)OC(C(C)C)c2c(NC(=O)c3c(C(F)F)nn(C)c3F)cccc21 (stereo not shown) [Example 8]
Eff. % (Septoria tritici): 86% | Eff. % (Puccinia recondita; 500 ppm): 98% | Eff. % (Sphaerotheca fuliginea; 500 ppm): 100% | logP [1]: 4.06[a] | Eff. % (Uromyces appendiculatus; 500 ppm): 100% | Eff. % (Alternaria brassicae; 500 ppm): 83%

CCC1(CC)OC(C(C)C)c2c(NC(=O)c3cn(C)nc3C(F)F)cccc21 (stereo not shown) [Example 12]
Eff. % (Septoria tritici): 86% | Eff. % (Puccinia recondita; 500 ppm): 94% | Eff. % (Sphaerotheca fuliginea; 500 ppm): 100% | logP [1]: 3.63[a] | Eff. % (Uromyces appendiculatus; 500 ppm): 100% | Eff. % (Alternaria brassicae; 500 ppm): 78%

Cn1nc(C(F)F)c(C(=O)Nc2cccc3c2C(C)(C)OC3(C)C)c1F [Example 1]
Eff. % [2]: 92%

CCC1OC(CC)(CC)c2cccc(NC(=O)c3c(C(F)F)nn(C)c3F)c21 (stereo not shown) [Example 24]
Eff. % (Botrytis cinerea; 100 ppm): 87% | Eff. % (Puccinia recondita; 100 ppm): 98% | Eff. % (Sphaerotheca fuliginea; 100 ppm): 100% | Eff. % (Pyrenophora teres; 100 ppm): 83% | logP [1]: 3.65[a] | Eff. % (Uromyces appendiculatus; 100 ppm): 100% | Eff. % (Alternaria brassicae; 100 ppm): 75%
